Laboratory results as given in ChEMBL document CHEMBL3272146, “Tetramethoxydibenzoquinolizinium salts. Preparation and antileukemic activity of some positional and structural isomers of coralyne” (1976).
Calls of active or inactive are those of the source. The calls are words filed in the database; no cut-off is given here.

Key:
P388 [1] = assay: In-vivo antileukemic activity against mouse P388 cells assessed as host survival at 25 mg/kg qd relative to control; type: functional
P388 [2] = assay: In-vivo antileukemic activity against mouse P388 cells assessed as host survival at 400 mg/kg qd relative to control; type: functional
P388 [3] = assay: In-vivo antileukemic activity against mouse P388 cells assessed as host survival at 200 mg/kg qd relative to control; type: functional
P388 [4] = assay: In-vivo antileukemic activity against mouse P388 cells assessed as host survival at 100 mg/kg qd; type: functional, organism-based; parameters: dose 100 mg/kg
P388 [5] = assay: In-vivo antileukemic activity against mouse P388 cells assessed as host survival at 50 mg/kg qd; type: functional, organism-based; parameters: dose 50 mg/kg
P388 [6] = assay: In-vivo antileukemic activity against mouse P388 cells assessed as host survival at 25 mg/kg qd; type: functional, organism-based; parameters: dose 25 mg/kg
P388 [7] = assay: In-vivo antileukemic activity against mouse P388 cells assessed as host survival at 200 mg/kg qd; type: functional, organism-based; parameters: dose 200 mg/kg
P388 [8] = assay: In-vivo antileukemic activity against mouse P388 cells assessed as host survival at 100 mg/kg qd relative to control; type: functional
P388 [9] = assay: In-vivo antileukemic activity against mouse P388 cells assessed as host survival at 50 mg/kg qd relative to control; type: functional
P388 [10] = assay: In-vivo antileukemic activity against mouse P388 cells assessed as host survival at 20 mg/kg qd relative to control; type: functional
P388 [11] = assay: In-vivo antileukemic activity against mouse P388 cells assessed as host survival at 10 mg/kg qd relative to control; type: functional
P388 [12] = assay: In-vivo antileukemic activity against mouse P388 cells assessed as host survival at 8 mg/kg qd relative to control; type: functional
P388 [13] = assay: In-vivo antileukemic activity against mouse P388 cells assessed as host survival at 5 mg/kg qd relative to control; type: functional
P388 [14] = assay: In-vivo antileukemic activity against mouse P388 cells assessed as host survival at 64 mg/kg qd; type: functional, organism-based; parameters: dose 64 mg/kg
P388 [15] = assay: In-vivo antileukemic activity against mouse P388 cells assessed as host survival at 5 mg/kg qd; type: functional, organism-based; parameters: dose 5 mg/kg
P388 [16] = assay: In-vivo antileukemic activity against mouse P388 cells assessed as host survival at 160 mg/kg qd relative to control; type: functional
P388 [17] = assay: In-vivo antileukemic activity against mouse P388 cells assessed as host survival at 128 mg/kg qd relative to control; type: functional
P388 [18] = assay: In-vivo antileukemic activity against mouse P388 cells assessed as host survival at 80 mg/kg qd relative to control; type: functional
P388 [19] = assay: In-vivo antileukemic activity against mouse P388 cells assessed as host survival at 75 mg/kg qd relative to control; type: functional
P388 [20] = assay: In-vivo antileukemic activity against mouse P388 cells assessed as host survival at 64 mg/kg qd relative to control; type: functional
P388 [21] = assay: In-vivo antileukemic activity against mouse P388 cells assessed as host survival at 40 mg/kg qd relative to control; type: functional
P388 [22] = assay: In-vivo antileukemic activity against mouse P388 cells assessed as host survival at 32 mg/kg qd relative to control; type: functional
P388 [23] = assay: In-vivo antileukemic activity against mouse P388 cells assessed as host survival at 20 mg/kg qd; type: functional, organism-based; parameters: dose 20 mg/kg
P388 [24] = assay: In-vivo antileukemic activity against mouse P388 cells assessed as host survival at 10 mg/kg qd; type: functional, organism-based; parameters: dose 10 mg/kg
P388 [25] = assay: In-vivo antileukemic activity against mouse P388 cells assessed as host survival at 168 mg/kg qd; type: functional, organism-based; parameters: dose 168 mg/kg
P388 [26] = assay: In-vivo antileukemic activity against mouse P388 cells assessed as host survival at 120 mg/kg qd relative to control; type: functional
P388 [27] = assay: In-vivo antileukemic activity against mouse P388 cells assessed as host survival at 120 mg/kg qd; type: functional, organism-based; parameters: dose 120 mg/kg
P388 [28] = assay: In-vivo antileukemic activity against mouse P388 cells assessed as host survival at 80 mg/kg qd; type: functional, organism-based; parameters: dose 80 mg/kg
P388 [29] = assay: In-vivo antileukemic activity against mouse P388 cells assessed as host survival at 160 mg/kg qd; type: functional, organism-based; parameters: dose 160 mg/kg
P388 [30] = assay: In-vivo antileukemic activity against mouse P388 cells assessed as host survival at 40 mg/kg qd; type: functional, organism-based; parameters: dose 40 mg/kg

| SMILES | T/C (P388 [1]) | Activity (P388 [4]) | Activity (P388 [5]) | Activity (P388 [6]) | T/C (P388 [8]) | T/C (P388 [9]) | T/C (P388 [10]) | T/C (P388 [11]) | T/C (P388 [13]) | Activity (P388 [15]) | T/C (P388 [16]) | T/C (P388 [18]) | T/C (P388 [21]) | Activity (P388 [23]) | Activity (P388 [24]) | T/C (P388 [26]) | Activity (P388 [27]) | Activity (P388 [28]) | other results |
| --- | --- | --- | --- | --- | --- | --- | --- | --- | --- | --- | --- | --- | --- | --- | --- | --- | --- | --- | --- |
| COc1cc2cc3c4cc(OC)c(OC)cc4cc(C)[n+]3cc2cc1OC.[Cl-] | 139 | Active | Active | Active | 134 | 134 | – | – | – | – | – | – | – | – | – | – | – | – | T/C (P388 [2]): 131; T/C (P388 [3]): 139; Activity (P388 [7]): Active |
| CC(=O)OS(=O)(=O)[O-].COc1cc2cc3c4cc(OC)c(OC)cc4cc[n+]3c(C)c2cc1OC | – | Active | Active | – | 176 | 180 | 173 | 159 | 157 | Active | 170 | 175 | 173 | – | – | – | – | – | T/C (P388 [12]): 150; Activity (P388 [14]): Active; T/C (P388 [17]): 167; T/C (P388 [19]): 175; T/C (P388 [20]): 182; T/C (P388 [22]): 175 |
| CC(=O)OS(=O)(=O)[O-].COc1cc2cc[n+]3c(C)c4ccc(OC)c(OC)c4cc3c2cc1OC | – | – | – | – | – | – | 171 | 136 | 127 | Active | – | – | 177 | Active | Active | – | – | – | Activity (P388 [25]): inactive |
| CC(=O)OS(=O)(=O)[O-].COc1cc2c[n+](C)c3c4ccc(OC)c(OC)c4ccc3c2cc1OC | 164 | Active | Active | Active | 209 | 174 | 154 | 149 | – | – | – | 170 | 153 | Active | Active | 179 | Active | Active | – |
| CC(=O)OS(=O)(=O)[O-].COc1cc2cc3cc4cc(OC)c(OC)cc4c(C)[n+]3cc2cc1OC | – | – | – | – | – | – | 180 | 145 | 140 | Active | 200 | 180 | 150 | Active | Active | 150 | Active | Active | Activity (P388 [29]): Active; Activity (P388 [30]): Active |
